# Test results: ChEMBL document CHEMBL1201862, “PubChem BioAssay data set” (2004)
# The source made the active and inactive calls.
# Columns and labels:
# [1] = DRD fibroblast viability loss – cell-based, non-viral oncogenic, luminescence, dose response (AID 1934); format: functional; conditions: Homo sapiens
# [2] = Counterscreen for AddAB inhibitors: absorbance-based bacterial cell-based high throughput dose response assay for inhibitors of bacterial viability. [Related pubchem assays (depositor defined):AID435030, AID449728, AID449731, AID488942, AID488955, AID488956]; format: functional
# cells [3] = format: functional, cell-based
# BJ [4] = assay: BJ-TERT fibroblast viability loss – cell-based, RAS-independent, luminescence, dose response (AID 1933); format: functional; conditions: Homo sapiens
# INS1 = assay: INS-1E survival protection against cytokine death – cell-based, luminescence, retest, dose response (AID 449756); format: functional; conditions: Rattus norvegicus;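 note: cell death triggered by IL-1 beta plus TNF-alpha plus IFN-gamma mixture; protective hits raise ATP signal compared with cytokine alone wells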
# cells [5] = format: functional, cell-based; remark: listed apart in the source
# Exodeoxyribonuclease V = target: T1, Exodeoxyribonuclease V (Escherichia coli (strain K12), UniProt P04993+P07648+P08394); assay: RecBCD inhibition via phage-restricted bacterial growth – absorbance, V66 E. coli, mutant T4 phage, counter-screen for AddAB inhibitor project, dose response (AID 492957); format: functional, cell-based, Escherichia coli str. K-12 substr. MG1655
# T1 sequence (P04993 whole entry): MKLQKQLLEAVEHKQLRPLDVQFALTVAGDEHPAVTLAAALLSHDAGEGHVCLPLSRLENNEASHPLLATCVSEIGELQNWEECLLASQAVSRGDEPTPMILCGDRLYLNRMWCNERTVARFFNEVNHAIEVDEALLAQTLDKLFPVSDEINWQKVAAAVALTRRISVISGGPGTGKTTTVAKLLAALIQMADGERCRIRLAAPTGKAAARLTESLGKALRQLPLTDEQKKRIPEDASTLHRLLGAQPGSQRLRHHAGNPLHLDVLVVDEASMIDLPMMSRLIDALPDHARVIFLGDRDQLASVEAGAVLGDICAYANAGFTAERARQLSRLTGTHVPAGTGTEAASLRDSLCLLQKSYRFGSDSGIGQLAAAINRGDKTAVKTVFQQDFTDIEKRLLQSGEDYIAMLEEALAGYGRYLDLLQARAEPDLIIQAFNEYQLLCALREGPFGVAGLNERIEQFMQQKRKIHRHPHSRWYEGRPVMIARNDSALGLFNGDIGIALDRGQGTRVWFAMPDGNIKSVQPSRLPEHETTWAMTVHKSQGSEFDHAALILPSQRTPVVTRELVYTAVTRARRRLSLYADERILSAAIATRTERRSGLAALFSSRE
# T1 sequence (P07648 whole entry): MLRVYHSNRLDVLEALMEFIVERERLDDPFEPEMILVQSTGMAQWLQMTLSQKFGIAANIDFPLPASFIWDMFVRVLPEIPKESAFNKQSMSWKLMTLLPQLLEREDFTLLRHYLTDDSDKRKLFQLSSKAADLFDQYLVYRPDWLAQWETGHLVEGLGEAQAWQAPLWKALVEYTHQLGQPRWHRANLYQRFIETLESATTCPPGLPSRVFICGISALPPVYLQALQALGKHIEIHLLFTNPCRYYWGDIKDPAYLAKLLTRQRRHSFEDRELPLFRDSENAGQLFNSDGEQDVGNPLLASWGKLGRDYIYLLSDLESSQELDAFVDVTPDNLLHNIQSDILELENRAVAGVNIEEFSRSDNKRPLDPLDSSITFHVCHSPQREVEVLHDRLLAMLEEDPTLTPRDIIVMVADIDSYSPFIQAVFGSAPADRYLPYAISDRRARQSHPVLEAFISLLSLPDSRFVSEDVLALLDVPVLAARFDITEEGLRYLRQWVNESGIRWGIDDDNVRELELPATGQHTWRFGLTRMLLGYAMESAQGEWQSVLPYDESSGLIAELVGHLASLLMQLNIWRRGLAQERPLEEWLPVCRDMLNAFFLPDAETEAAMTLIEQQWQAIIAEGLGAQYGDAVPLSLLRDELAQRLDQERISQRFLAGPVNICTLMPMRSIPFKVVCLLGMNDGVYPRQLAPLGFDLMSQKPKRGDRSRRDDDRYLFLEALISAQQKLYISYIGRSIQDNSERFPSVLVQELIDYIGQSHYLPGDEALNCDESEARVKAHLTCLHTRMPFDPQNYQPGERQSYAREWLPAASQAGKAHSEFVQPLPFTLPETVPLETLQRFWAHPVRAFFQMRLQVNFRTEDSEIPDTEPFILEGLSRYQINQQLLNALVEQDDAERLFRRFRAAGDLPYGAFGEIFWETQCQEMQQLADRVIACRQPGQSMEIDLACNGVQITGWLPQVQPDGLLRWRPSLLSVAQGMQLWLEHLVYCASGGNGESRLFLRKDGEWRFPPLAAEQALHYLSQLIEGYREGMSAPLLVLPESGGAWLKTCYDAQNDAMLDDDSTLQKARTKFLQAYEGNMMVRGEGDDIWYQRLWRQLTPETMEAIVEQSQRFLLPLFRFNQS
# T1 sequence (P08394 whole entry): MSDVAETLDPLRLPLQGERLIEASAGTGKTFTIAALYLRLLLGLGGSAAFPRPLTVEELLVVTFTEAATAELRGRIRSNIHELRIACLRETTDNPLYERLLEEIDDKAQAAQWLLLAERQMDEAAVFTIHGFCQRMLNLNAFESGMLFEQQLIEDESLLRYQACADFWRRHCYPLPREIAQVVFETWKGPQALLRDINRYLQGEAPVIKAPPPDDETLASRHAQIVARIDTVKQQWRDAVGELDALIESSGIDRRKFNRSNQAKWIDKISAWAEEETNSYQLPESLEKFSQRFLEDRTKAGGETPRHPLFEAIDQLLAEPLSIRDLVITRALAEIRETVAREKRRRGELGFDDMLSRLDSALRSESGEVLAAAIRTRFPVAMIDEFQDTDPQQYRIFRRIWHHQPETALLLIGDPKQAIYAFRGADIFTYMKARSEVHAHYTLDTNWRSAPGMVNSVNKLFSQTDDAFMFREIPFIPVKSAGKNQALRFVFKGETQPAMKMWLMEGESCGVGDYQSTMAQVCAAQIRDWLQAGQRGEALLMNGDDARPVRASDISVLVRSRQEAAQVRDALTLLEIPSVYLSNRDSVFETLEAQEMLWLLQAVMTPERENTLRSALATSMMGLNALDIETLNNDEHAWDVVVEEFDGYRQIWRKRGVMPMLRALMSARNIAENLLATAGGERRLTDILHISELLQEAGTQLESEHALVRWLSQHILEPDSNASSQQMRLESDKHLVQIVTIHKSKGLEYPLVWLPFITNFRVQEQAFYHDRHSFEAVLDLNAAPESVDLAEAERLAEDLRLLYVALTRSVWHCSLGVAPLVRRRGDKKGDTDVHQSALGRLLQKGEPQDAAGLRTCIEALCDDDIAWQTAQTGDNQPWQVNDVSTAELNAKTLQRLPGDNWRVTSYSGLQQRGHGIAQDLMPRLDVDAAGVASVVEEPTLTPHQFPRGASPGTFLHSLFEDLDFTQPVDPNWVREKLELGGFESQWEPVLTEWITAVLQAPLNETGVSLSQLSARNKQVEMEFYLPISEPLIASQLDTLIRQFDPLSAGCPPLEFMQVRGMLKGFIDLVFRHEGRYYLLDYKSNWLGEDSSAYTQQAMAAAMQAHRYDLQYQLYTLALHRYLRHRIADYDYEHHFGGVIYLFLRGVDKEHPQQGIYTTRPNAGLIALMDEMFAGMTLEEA
# BJ [6] = assay: cells; format: functional, cell-based; conditions: Homo sapiens
# BJ [7] = assay: BJ-TERT-LT-ST fibroblast viability loss – cell-based, RAS-independent, luminescence, dose response (AID 1935); format: functional; conditions: Homo sapiens;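 note: BJ fibroblasts immortalized with TERT plus LT and ST oncogenes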
# BJ [8] = assay: growth inhibition of engineered Ras-driven BJ cells – cell-based, alamar blue fluorescence, cherrypicked samples, dose response (AID 2631); format: functional; conditions: Homo sapiens;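 note: confirmatory dose-response assay in RAS-dependent BJ fibroblasts engineered with TERT, LT and ST, with cytotoxicity read by fluorescence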
# Vero [9] = assay: cells; format: functional; conditions: Chlorocebus sabaeus
# Vero [10] = assay: cells; format: functional, cell-based; conditions: Chlorocebus sabaeus
# [11] = target: T2, Tyrosyl-DNA phosphodiesterase 2 (Homo sapiens, UniProt O95551); assay: potency against TDP2 phosphodiesterase activity – biochemical, epi absorbance, IC50, dose response (AID 743297)
# T2 sequence (O95551 whole entry): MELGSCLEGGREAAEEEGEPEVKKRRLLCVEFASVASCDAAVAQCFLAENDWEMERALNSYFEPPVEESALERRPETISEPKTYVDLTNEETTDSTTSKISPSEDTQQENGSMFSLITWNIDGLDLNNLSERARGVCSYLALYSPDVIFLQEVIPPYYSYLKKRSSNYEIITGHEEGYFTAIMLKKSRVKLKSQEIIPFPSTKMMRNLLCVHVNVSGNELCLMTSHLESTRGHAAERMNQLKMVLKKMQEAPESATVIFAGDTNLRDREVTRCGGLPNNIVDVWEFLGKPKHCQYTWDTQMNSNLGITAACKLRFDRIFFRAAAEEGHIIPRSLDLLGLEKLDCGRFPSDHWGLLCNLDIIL
# [12] = target: T3, Apoptotic protease-activating factor 1 (Homo sapiens, UniProt O14727); format: functional
# T3 sequence (O14727 whole entry): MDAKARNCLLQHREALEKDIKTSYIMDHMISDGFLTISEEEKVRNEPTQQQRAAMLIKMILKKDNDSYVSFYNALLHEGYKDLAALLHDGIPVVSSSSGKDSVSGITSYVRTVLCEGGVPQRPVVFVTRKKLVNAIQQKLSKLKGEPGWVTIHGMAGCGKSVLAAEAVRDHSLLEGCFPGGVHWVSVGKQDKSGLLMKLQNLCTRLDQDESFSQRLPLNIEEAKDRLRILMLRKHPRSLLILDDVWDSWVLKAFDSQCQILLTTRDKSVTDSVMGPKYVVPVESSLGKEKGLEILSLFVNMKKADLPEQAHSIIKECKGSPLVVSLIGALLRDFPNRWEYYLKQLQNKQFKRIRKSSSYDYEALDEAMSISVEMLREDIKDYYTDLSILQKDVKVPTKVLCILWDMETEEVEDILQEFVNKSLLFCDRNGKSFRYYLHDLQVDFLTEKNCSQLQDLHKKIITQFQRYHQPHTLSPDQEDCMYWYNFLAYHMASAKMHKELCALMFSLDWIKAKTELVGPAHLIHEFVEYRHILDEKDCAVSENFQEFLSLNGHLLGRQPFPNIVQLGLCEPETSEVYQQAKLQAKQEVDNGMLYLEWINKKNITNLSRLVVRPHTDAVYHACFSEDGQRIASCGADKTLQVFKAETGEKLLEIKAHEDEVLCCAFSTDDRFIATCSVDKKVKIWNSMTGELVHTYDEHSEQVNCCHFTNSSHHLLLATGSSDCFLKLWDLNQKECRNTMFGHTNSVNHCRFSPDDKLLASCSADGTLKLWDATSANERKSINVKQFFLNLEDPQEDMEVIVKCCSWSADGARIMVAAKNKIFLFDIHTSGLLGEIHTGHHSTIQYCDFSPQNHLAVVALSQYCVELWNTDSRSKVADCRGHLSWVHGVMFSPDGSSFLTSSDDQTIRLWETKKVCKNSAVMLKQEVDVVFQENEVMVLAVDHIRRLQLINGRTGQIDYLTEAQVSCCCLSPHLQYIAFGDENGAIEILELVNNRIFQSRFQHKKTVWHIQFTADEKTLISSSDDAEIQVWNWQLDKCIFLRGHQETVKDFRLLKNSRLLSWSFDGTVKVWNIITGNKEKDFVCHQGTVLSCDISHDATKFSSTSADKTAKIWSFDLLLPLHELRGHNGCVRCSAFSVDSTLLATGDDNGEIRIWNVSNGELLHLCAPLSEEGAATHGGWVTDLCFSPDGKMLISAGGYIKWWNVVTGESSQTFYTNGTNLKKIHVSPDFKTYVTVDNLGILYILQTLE
# SUMO-activating enzyme [13] = target: T4, SUMO-activating enzyme (Homo sapiens, UniProt Q9UBT2); assay: blockers of SAE1/SAE2–UBC9 SUMO transfer – biochemical, HTRF, uHTS, primary screen (AID 2006); format: protein-complex assay
# Genome polyprotein = Genome polyprotein (dengue virus type 2, UniProt P29990); assay: flavivirus cap methylation enzyme inhibition – biochemical, confirmation dose response, primary screen (AID 588689); format: functional
# SUMO-activating enzyme [14] = target: T4, SUMO-activating enzyme; assay: blockers of UBC9-mediated SUMO conjugation – biochemical, AlphaScreen, SUMOylation inhibitor project, confirmation (AID 2018); format: functional
# T4 sequence (Q9UBE0 whole entry): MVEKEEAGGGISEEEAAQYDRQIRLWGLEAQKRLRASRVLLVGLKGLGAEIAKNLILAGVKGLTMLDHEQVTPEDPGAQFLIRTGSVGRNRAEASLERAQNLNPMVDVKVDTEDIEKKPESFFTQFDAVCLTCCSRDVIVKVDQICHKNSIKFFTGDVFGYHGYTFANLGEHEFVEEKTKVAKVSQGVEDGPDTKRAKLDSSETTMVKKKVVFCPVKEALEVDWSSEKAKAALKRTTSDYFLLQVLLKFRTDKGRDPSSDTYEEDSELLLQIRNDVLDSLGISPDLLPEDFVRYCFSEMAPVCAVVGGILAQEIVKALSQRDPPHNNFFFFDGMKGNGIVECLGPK
# T4 sequence (Q9UBT2 whole entry): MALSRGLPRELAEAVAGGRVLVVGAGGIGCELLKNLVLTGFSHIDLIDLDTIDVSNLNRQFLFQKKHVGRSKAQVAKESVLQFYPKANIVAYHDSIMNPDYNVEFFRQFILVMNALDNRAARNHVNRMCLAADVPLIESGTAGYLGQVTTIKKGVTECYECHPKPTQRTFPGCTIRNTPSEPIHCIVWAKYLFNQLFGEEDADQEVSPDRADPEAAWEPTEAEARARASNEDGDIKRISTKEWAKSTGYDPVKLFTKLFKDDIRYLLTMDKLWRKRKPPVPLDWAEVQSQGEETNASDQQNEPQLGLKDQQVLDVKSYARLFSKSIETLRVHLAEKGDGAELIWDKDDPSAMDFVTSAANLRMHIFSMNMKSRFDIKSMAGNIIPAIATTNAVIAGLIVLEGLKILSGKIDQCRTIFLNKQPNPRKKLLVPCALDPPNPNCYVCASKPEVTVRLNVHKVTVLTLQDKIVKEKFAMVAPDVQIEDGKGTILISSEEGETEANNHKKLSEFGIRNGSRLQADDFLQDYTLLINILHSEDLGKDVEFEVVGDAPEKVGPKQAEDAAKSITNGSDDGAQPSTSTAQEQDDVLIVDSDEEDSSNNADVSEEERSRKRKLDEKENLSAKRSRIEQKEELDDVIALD
# Genome polyprotein, sequence (P29990 2492-3391 limits assumed): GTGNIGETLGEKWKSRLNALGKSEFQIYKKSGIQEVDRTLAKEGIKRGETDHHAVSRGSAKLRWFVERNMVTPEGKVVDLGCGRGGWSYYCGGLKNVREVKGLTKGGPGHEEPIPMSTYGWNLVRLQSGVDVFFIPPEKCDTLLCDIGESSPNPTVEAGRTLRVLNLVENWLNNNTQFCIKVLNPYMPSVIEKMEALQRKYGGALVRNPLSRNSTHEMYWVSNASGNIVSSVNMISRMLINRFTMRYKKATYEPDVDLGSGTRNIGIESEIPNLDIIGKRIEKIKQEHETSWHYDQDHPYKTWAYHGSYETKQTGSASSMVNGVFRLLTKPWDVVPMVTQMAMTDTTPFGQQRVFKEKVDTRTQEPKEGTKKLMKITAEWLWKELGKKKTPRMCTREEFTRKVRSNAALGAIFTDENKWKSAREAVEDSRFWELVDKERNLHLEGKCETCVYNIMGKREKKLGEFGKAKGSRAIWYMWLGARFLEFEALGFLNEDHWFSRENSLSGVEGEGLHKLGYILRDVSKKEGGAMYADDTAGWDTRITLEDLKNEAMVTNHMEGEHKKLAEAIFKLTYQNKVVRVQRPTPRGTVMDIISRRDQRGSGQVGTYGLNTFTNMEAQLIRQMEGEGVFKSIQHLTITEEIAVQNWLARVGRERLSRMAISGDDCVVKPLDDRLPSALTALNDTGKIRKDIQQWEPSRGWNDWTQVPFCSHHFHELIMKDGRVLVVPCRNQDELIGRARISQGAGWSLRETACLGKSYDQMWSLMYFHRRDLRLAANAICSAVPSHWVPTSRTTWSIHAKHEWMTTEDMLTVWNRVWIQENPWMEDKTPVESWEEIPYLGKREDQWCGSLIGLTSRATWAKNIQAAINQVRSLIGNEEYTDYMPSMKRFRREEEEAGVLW
smiles,measurement,setting,value
C/C(=N\Nc1ccc2nncn2n1)c1ccccn1,EC50,[1],4.95 µM (active)
same,IC50,[2],114 µM (inactive)
same,EC50,cells [3],> 350 µM (not active)
same,EC50,BJ [4],16 µM (active)
same,AC50,INS1,0.898 µM (active)
same,EC50,cells [5],6.99 µM (active)
same,IC50,Exodeoxyribonuclease V,57.1 µM (inactive)
same,EC50,BJ [6],4.29 µM (active)
same,EC50,BJ [7],8.41 µM (inconclusive)
same,EC50,BJ [8],0.912 µM (active)
C/C(=N\NC1=NC(=O)C(CC(=O)O)S1)c1ccccn1 (stereo not given),IC50,[2],> 118 µM (inactive)
same,IC50,Exodeoxyribonuclease V,73.3 µM (inactive)
Cn1cc(CN2CCCC(C(=O)Nc3ccc(-c4cccc(F)c4)cc3)C2)cn1 (stereo not given),CC50,Vero [9],22.3 µM (active)
same,IC50,Vero [10],22.6 µM (active)
COc1cc(C(c2c(C)[nH]n(-c3ccccc3)c2=O)c2c(C)[nH]n(-c3ccccc3)c2=O)cc(OC)c1OC,IC50,[11],19.9 µM (inactive)
same,IC50,[12],24.4 µM (active)
same,IC50,SUMO-activating enzyme [13],33.9 µM (active)
same,IC50,Genome polyprotein,38.3 µM (active)
same,IC50,SUMO-activating enzyme [14],6.66 µM (active)
O=C(Cn1cnc2ccccc21)Nc1ccc2c(c1)OCCCO2,IC50,[2],> 119 µM (inactive)
same,IC50,Exodeoxyribonuclease V,> 119 µM (inactive)
CN(C)CCCN(C(=O)c1ccc2c(c1)OCCO2)c1nc2ccc(Cl)cc2s1,CC50,Vero [9],> 25 µM (active)
same,IC50,Vero [10],> 25 µM (active)
CN1CCN(CCCN2c3ccccc3Sc3ccc(S(=O)(=O)N(C)C)cc32)CC1,CC50,Vero [9],> 25 µM (active)
same,IC50,Vero [10],> 25 µM (active)
